The record followed here is patent US12371428B2 (Exelixis, Inc., priority 2019, dated 2025).

In experiment [1] the target is Met (phospho-Met, HGF-stimulated PC-3 prostate cancer cells) (Homo sapiens (Human), UniProt P08581). The experiment can be described thus: Met autophosphorylation ELISA in PC-3 cells (Example F). Particulars: cellular activity; Met autophosphorylation ELISA in PC-3 cells; read-out: c-Met IC50. Type of experiment: cell-based. Put shortly: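 PC-3 cells, serum-starved 3 h, were treated with compounds (8-point dose curve, 0.3% DMSO final) for 1 h, then stimulated with 100 ng/mL recombinant human HGF for 10 min. Lysate phospho-Met (panTyr) was quantified by sandwich ELISA; IC50 from 4-parameter logistic fit.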
A general note: ELISA stands for enzyme-linked immunosorbent assay.

Experiment [2] addresses Human KDR (residues 790-1356) (Homo sapiens (Human), UniProt P35968). The experiment is described as follows: Human KDR kinase assay, HTRF KinEase (Example B-2). In kind it is biochemical. Particulars: protocol of Example B-2 (other compounds). Put shortly: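 Ten compound concentrations (3% DMSO final) were pre-plated, then KDR (790-1356) with biotinylated peptide in Mg/Mn/DTT buffer was added; ATP at Km (4.0 μM) started a 40 min room-temperature reaction. Detection used Eu-TK antibody and SA-XL665 in EDTA buffer; activity normalized to DMSO and reference inhibitor, IC50 by logistic fit.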
(Time-resolved FRET reads energy transfer from a long-lived donor to a nearby acceptor.)

Experiment [3] has as its target KDR (phospho-KDR, VEGF165-stimulated HUVEC cells) (Homo sapiens (Human), UniProt P35968). The experiment is described as follows: KDR autophosphorylation ELISA in HUVEC cells (Example G). Particulars: cellular activity; KDR autophosphorylation ELISA in HUVEC cells. In kind it is cell-based. Summed up: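 Inhibition of VEGF165-driven KDR autophosphorylation is measured in primary human umbilical vein endothelial cells after 24 h serum deprivation. Compound preincubation lasts 1 h before a 5-minute challenge with 100 ng/mL ligand, and phosphorylated receptor is then measured by ELISA in the lysates.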

Experiment [4] deals with Human MER (residues 528-999) (Homo sapiens (Human), UniProt Q12866). The experiment can be described thus: Human Mer kinase assay, HTRF KinEase (Example C-2). Type of experiment: biochemical. Particulars: protocol of Example C-2 (other compounds). Put shortly: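 IC50 values from 10 concentrations via 4-parameter logistic fit of […], with DMSO as 100% and 1 μM reference compound as 0% activity. Reaction: MER kinase domain 528-999, 1 ng/well, 40 μM ATP (Km), biotin peptide, 5 mM MgCl2, 1 mM DTT, 3% DMSO, room temperature 60 min; HTRF streptavidin-XL665/Eu-antibody detection.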

Counter-ions that a name gives are not always drawn.

KDR (phospho-KDR, VEGF165-stimulated HUVEC cells), sequence (P35968 20-1356): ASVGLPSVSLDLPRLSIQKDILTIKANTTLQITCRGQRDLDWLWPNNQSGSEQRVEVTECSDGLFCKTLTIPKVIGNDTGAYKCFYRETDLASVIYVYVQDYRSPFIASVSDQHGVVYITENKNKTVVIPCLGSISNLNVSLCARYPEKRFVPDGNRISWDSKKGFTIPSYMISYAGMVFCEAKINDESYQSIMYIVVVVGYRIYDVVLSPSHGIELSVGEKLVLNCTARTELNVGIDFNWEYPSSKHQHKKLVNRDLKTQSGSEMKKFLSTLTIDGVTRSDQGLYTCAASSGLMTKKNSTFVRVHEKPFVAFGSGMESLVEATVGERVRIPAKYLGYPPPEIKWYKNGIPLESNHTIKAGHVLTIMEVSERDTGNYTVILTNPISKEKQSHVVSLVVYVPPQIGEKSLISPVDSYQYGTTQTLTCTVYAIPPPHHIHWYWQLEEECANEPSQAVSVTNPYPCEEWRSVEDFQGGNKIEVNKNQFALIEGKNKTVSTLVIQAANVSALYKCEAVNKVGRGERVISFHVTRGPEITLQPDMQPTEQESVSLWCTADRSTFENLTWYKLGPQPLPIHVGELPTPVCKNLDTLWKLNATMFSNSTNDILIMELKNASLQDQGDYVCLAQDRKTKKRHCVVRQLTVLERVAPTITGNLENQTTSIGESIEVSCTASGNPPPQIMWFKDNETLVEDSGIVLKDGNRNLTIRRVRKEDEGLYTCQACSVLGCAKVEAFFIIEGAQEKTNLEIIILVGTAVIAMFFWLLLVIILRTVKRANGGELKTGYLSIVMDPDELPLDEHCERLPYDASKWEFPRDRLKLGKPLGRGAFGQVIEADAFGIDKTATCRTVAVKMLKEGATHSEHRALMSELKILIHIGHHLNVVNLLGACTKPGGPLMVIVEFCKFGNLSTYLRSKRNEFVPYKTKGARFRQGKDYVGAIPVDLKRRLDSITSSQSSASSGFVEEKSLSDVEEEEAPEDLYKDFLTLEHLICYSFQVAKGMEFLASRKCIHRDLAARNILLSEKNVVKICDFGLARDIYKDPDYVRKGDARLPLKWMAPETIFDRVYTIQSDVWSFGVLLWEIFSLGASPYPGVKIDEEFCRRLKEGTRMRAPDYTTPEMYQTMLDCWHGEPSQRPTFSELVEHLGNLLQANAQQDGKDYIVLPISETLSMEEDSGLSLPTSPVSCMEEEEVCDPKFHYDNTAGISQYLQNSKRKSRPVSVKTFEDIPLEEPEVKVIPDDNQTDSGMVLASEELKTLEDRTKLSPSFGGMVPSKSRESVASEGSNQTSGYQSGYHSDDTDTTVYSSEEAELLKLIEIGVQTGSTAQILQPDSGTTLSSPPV
Human MER (residues 528-999), sequence (Q12866 528-999): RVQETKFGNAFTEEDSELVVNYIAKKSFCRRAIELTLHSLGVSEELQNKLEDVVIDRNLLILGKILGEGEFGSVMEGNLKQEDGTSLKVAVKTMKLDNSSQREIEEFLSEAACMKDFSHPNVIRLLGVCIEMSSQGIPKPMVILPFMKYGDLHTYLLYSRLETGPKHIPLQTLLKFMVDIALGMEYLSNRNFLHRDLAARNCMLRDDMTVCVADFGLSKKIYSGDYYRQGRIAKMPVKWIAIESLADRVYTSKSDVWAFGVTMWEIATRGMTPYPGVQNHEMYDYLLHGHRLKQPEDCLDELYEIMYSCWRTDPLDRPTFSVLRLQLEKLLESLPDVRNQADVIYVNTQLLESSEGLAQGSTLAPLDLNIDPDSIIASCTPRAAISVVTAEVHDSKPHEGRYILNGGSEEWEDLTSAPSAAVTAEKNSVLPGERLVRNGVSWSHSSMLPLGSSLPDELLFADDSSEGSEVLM
Met (phospho-Met, HGF-stimulated PC-3 prostate cancer cells), sequence (P08581 25-1390): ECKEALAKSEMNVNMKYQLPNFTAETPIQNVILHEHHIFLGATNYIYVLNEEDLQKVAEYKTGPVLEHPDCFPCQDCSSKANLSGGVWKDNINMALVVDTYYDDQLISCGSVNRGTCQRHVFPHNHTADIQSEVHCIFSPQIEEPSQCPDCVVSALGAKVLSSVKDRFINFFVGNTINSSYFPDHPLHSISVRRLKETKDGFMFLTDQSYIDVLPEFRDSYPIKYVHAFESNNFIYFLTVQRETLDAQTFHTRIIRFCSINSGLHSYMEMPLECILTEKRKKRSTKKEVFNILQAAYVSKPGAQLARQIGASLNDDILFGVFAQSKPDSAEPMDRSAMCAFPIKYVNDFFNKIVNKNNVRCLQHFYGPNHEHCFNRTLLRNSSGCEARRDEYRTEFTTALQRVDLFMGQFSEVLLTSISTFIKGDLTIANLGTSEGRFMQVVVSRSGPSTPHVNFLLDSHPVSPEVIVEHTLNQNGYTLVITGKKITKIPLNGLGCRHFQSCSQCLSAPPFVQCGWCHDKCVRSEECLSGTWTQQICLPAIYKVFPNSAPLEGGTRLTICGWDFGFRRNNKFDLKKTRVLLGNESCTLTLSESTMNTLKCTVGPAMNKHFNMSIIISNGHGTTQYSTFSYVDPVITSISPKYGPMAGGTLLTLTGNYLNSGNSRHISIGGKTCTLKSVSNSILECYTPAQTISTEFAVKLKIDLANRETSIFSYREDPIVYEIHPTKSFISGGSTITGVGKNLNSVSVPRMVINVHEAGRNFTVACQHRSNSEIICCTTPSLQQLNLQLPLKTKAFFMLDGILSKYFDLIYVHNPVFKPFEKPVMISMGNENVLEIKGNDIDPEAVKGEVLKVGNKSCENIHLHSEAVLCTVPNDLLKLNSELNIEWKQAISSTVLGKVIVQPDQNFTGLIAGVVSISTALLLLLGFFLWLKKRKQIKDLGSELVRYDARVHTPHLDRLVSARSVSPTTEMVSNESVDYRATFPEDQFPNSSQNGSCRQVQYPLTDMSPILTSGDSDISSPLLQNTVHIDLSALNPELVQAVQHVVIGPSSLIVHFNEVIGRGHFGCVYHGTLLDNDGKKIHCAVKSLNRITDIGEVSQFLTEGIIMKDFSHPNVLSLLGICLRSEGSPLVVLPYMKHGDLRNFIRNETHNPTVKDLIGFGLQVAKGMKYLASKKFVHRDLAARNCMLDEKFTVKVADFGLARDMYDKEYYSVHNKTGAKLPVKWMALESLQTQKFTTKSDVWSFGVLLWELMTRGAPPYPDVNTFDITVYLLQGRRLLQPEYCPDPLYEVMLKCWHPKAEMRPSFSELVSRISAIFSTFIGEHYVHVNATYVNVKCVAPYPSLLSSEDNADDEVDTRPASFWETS
Human KDR (residues 790-1356), sequence (P35968 790-1356): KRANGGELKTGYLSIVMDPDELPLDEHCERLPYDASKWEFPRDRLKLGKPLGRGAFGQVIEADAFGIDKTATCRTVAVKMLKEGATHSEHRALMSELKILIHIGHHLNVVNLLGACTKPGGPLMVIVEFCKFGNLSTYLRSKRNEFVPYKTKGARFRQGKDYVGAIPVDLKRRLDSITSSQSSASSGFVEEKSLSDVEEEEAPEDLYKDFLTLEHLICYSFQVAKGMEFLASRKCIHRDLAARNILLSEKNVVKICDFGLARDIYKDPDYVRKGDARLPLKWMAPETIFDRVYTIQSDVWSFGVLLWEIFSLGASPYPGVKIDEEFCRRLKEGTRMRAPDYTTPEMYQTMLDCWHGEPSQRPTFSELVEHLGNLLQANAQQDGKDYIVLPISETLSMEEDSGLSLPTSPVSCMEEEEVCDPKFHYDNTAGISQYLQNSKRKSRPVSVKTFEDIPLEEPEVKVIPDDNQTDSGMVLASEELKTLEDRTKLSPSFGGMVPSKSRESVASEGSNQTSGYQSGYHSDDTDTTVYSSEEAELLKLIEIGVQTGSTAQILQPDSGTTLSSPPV

Usually IC50 stands for the concentration at which inhibition is half-maximal. Take `COc1cnc2c(Oc3ccc(NC(=O)c4cnc(CO)c(-c5ccc(F)cc5)c4O)cc3)ccnc2c1` [Compound 218, 5-(4-Fluorophenyl)-4-hydroxy-6-(hydroxymethyl)-N-[4-[(7-methoxy-1,5-naphthyridin-4-yl)oxy]phenyl]pyridine-3-carboxamide]: the IC50 is under 0.1 µM in experiment [1], 0.1 to 0.3 µM in experiment [2], under 0.1 µM in experiment [3] and under 0.1 µM in experiment [4].
Take `COc1cc2nccc(Oc3ccc(NC(=O)c4cn(C)cc(-c5cccc(F)c5)c4=O)cc3F)c2nc1OC` [Compound 35, N-[4-[(6,7-Dimethoxy-1,5-naphthyridin-4-yl)oxy]-3-fluorophenyl]-5-(3-fluorophenyl)-1-methyl-4-oxopyridine-3-carboxamide hydrochloride]: the IC50 in experiment [1], in experiment [2], in experiment [3] and in experiment [4] was under 0.1 µM throughout.
As for `CCc1nc(C)c(-c2ccc(F)cc2C)c(O)c1C(=O)Nc1ccc(Oc2ccnc3cc(OC)c(OC)nc23)cc1` [Compound 203, N-[4-[(6,7-Dimethoxy-1,5-naphthyridin-4-yl)oxy]phenyl]-2-ethyl-5-(4-fluoro-2-methylphenyl)-4-hydroxy-6-methylpyridine-3-carboxamide], the IC50 in experiment [1], in experiment [2], in experiment [3] and in experiment [4] was under 0.1 µM in each case.
Consider `CCc1nc(C)c(-c2ccc(F)cc2)c(O)c1C(=O)Nc1ccc(Oc2ccnc3cc(OC)cnc23)c(F)c1` [Compound 180, 2-Ethyl-N-[3-fluoro-4-[(7-methoxy-1,5-naphthyridin-4-yl)oxy]phenyl]-5-(4-fluorophenyl)-4-hydroxy-6-methylpyridine-3-carboxamide], for which the IC50 in experiment [1], in experiment [2], in experiment [3] and in experiment [4] was under 0.1 µM each time.
With `COCc1nc(C)c(-c2ccc(F)cc2C)c(O)c1C(=O)Nc1ccc(Oc2ccnc3cc(OC)c(OC)nc23)cc1` [Compound 192, N-[4-[(6,7-Dimethoxy-1,5-naphthyridin-4-yl)oxy]phenyl]-5-(4-fluoro-2-methylphenyl)-4-hydroxy-2-(methoxymethyl)-6-methylpyridine-3-carboxamide], the IC50 in experiment [1], in experiment [2], in experiment [3] and in experiment [4] was under 0.1 µM in each case.
Regarding `CCc1nc(C)c(-c2ccc(F)cc2C)c(O)c1C(=O)Nc1ccc(Oc2ccnc3ccc(OC)nc23)c(F)c1` [Compound 206, 2-Ethyl-N-[3-fluoro-4-[(6-methoxy-1,5-naphthyridin-4-yl)oxy]phenyl]-5-(4-fluoro-2-methylphenyl)-4-hydroxy-6-methylpyridine-3-carboxamide], the IC50 in experiment [1] is under 0.1 µM; in experiment [2] it was over 0.3 µM; in experiment [3], under 0.1 µM; in experiment [4] it was under 0.1 µM.
Take `COCc1nc(C)c(-c2ccc(F)cc2C)c(O)c1C(=O)Nc1ccc(Oc2ccnc3cc(OC)c(OC)nc23)c(F)c1` [Compound 191, N-[4-[(6,7-Dimethoxy-1,5-naphthyridin-4-yl)oxy]-3-fluorophenyl]-5-(4-fluoro-2-methylphenyl)-4-hydroxy-2-(methoxymethyl)-6-methylpyridine-3-carboxamide]: the IC50 in experiment [1], in experiment [2], in experiment [3] and in experiment [4] was under 0.1 µM each time.
Turning to `COc1cnc2c(Oc3ccc(NC(=O)c4ccc(C)n(-c5ccc(F)cc5)c4=O)cc3)ccnc2c1` [Compound 216, 1-(4-Fluorophenyl)-N-[4-[(7-methoxy-1,5-naphthyridin-4-yl)oxy]phenyl]-6-methyl-2-oxopyridine-3-carboxamide], the half-maximal inhibitory concentration (IC50) in experiment [1], in experiment [2], in experiment [3] and in experiment [4] was under 0.1 µM throughout.
Consider `COc1cc2nccc(Oc3ccc(NC(=O)c4cn(C)c(C)c(-c5cccc(F)c5)c4=O)cc3F)c2nc1OC` [Compound 37, N-[4-[(6,7-Dimethoxy-1,5-naphthyridin-4-yl)oxy]-3-fluorophenyl]-5-(3-fluorophenyl)-1,6-dimethyl-4-oxopyridine-3-carboxamide hydrochloride], for which the IC50 was under 0.1 µM in experiment [1], 0.1 to 0.3 µM in experiment [2], 0.1 to 0.3 µM in experiment [3] and under 0.1 µM in experiment [4].
Regarding `COc1cnc2c(Oc3ccc(NC(=O)c4cnc(C(F)(F)F)c(-c5ccc(F)cc5)c4O)cc3F)ccnc2c1` [Compound 241, N-[3-Fluoro-4-[(7-methoxy-1,5-naphthyridin-4-yl)oxy]phenyl]-5-(4-fluorophenyl)-4-hydroxy-6-(trifluoromethyl)pyridine-3-carboxamide], the IC50 in experiment [1] was under 0.1 µM; in experiment [2], over 0.3 µM; in experiment [3], over 0.3 µM; in experiment [4], under 0.1 µM.
For `COCc1nc(C)c(-c2ccc(F)cc2)c(O)c1C(=O)Nc1ccc(Oc2ccnc3cc(OC)cnc23)c(F)c1` [Compound 186, N-[3-Fluoro-4-[(7-methoxy-1,5-naphthyridin-4-yl)oxy]phenyl]-5-(4-fluorophenyl)-4-hydroxy-2-(methoxymethyl)-6-methylpyridine-3-carboxamide], the 50% inhibitory concentration (IC50) in experiment [1], in experiment [2], in experiment [3] and in experiment [4] was under 0.1 µM throughout.
`COCc1nc(C)c(-c2ccc(F)cc2C)c(O)c1C(=O)Nc1ccc(Oc2ccnc3ccc(OC)nc23)c(F)c1` [Compound 195, N-[3-Fluoro-4-[(6-methoxy-1,5-naphthyridin-4-yl)oxy]phenyl]-5-(4-fluoro-2-methylphenyl)-4-hydroxy-2-(methoxymethyl)-6-methylpyridine-3-carboxamide]: the IC50 in experiment [1] was under 0.1 µM; in experiment [2], over 0.3 µM; in experiment [3], under 0.1 µM; in experiment [4], under 0.1 µM.
As for `COc1cc2nccc(Oc3ccc(NC(=O)c4cn(C)c(CO)c(-c5ccc(F)cc5)c4=O)cc3)c2nc1OC` [Compound 221, N-[4-[(6,7-Dimethoxy-1,5-naphthyridin-4-yl)oxy]phenyl]-5-(4-fluorophenyl)-6-(hydroxymethyl)-1-methyl-4-oxopyridine-3-carboxamide], the IC50 in experiment [1] is under 0.1 µM; in experiment [2], 0.1 to 0.3 µM; in experiment [3] it was 0.1 to 0.3 µM; in experiment [4] it was under 0.1 µM.
As for `CCc1nc(C)c(-c2ccc(F)cc2)c(O)c1C(=O)Nc1ccc(Oc2ccnc3cc(OC)cnc23)cc1` [Compound 188, 2-Ethyl-5-(4-fluorophenyl)-4-hydroxy-N-[4-[(7-methoxy-1,5-naphthyridin-4-yl)oxy]phenyl]-6-methylpyridine-3-carboxamide], the IC50 in experiment [1], in experiment [2], in experiment [3] and in experiment [4] was under 0.1 µM throughout.
`COc1ccc2nccc(Oc3ccc(NC(=O)c4c(C)ncc(-c5ccc(F)cc5)c4O)cc3F)c2n1` [Compound 242, N-[3-Fluoro-4-[(6-methoxy-1,5-naphthyridin-4-yl)oxy]phenyl]-5-(4-fluorophenyl)-4-hydroxy-2-methylpyridine-3-carboxamide]: the IC50 in experiment [1], in experiment [2], in experiment [3] and in experiment [4] was under 0.1 µM each time.
As to `COc1cc2nccc(Oc3ccc(NC(=O)c4ncc(C)n(-c5ccc(F)cc5)c4=O)cc3)c2nc1OC` [Compound 262, N-[4-[(6,7-Dimethoxy-1,5-naphthyridin-4-yl)oxy]phenyl]-4-(4-fluorophenyl)-5-methyl-3-oxopyrazine-2-carboxamide], the IC50 in experiment [1], in experiment [2], in experiment [3] and in experiment [4] was under 0.1 µM each time.
In the case of `COCCOc1nc2c(Oc3ccc(NC(=O)c4ccc(C)n(-c5ccc(F)cc5)c4=O)cc3F)ccnc2cc1OC` [Compound 227, N-[3-Fluoro-4-[[7-methoxy-6-(2-methoxyethoxy)-1,5-naphthyridin-4-yl]oxy]phenyl]-1-(4-fluorophenyl)-6-methyl-2-oxopyridine-3-carboxamide], the IC50 in experiment [1], in experiment [2], in experiment [3] and in experiment [4] was under 0.1 µM throughout.
Consider `COc1ccc2nccc(Oc3ccc(NC(=O)c4cn(C)c(CO)c(-c5ccc(F)cc5)c4=O)cc3F)c2n1` [Compound 224, N-[3-Fluoro-4-[(6-methoxy-1,5-naphthyridin-4-yl)oxy]phenyl]-5-(4-fluorophenyl)-6-(hydroxymethyl)-1-methyl-4-oxopyridine-3-carboxamide], for which the IC50 in experiment [1] was 0.1 to 0.3 µM; in experiment [2] it was over 0.3 µM; in experiment [3], over 0.3 µM; in experiment [4], under 0.1 µM.
